{"source": "patent US20230181719A1", "about": "“NGR CONJUGATES AND USES THEREOF” (OSPEDALE SAN RAFFAELE S.R.L., priority 2020, published 2023)", "key": {"[1]": {"target": "T1, CD13 (aminopeptidase N) (Homo sapiens, UniProt P15144)", "T1 construct": "histidine tag", "test": "CD13 enzyme kinetics inhibition assay (L-alanine p-nitroanilide substrate)", "type": "biochemical", "conditions": "in different experimental conditions", "excerpt": "FIG. 10. The peptide SCNGRCGVRY (SEQ ID NO: 3) inhibits CD13 enzymatic activity more efficiently than CNGRCGVRY (SEQ ID NO:4) and acetylated-CNGRCGVRY. A) Steady state kinetic analysis of CD13 in the presence of various amounts of L-alanine p-nitroanilide substrate and SCNGRCGVRY (SEQ ID NO: 3), CNGRCGVRY (SEQ ID NO:4), or acetylated-CNGRCGVRY (ac-CNGRCGVRY) (SEQ ID NO:42). A representative plot of 3-4 independent experiments, showing the initial velocity (V0) versus substrate concentration (mean ± SE of four technical replicates), is shown. The assays were performed with recombinant human histidine-tagged CD13 (200-300 ng/ml) in 60 mM potassium phosphate buffer, pH 7.4, at room temperature. The kinetic of p-nitroanilide formation was monitored spectrophotometrically (A405 nm) for 5-10 min. The inhibitory constant (Ki) reported in each plot is the result of the 3-4 independent experiments (mean ± SE). B) Double reciprocal plots of the experiments reported in panel A.\nTo rule out the possibility that the addition of the serine residue to the N-terminus of NGR-TNF abrogates or reduces its affinity for CD13 inventors performed enzyme kinetics inhibition assays with CD13 (aminopeptidase N) and SCNGRCGVRY (SEQ ID NO: 3), CNGRCGVRY (SEQ ID NO:4) or acetyl-CNGRCGVRY (corresponding to the N-terminal region of human S-NGR-TNF and NGR-TNF)."}, "[2]": {"target": "α5β1 (Homo sapiens, UniProt P05556+P08648)", "test": "Competitive binding of acetyl-CisoDGRCG/streptavidin-peroxidase to integrin-coated microtiterplates", "conditions": "mean ± SE", "excerpt": "(§1) To assess whether the isoDGR derivative of S-NGR-TNF and NGR-TNF targeting domains can recognize integrins with similar affinities inventors then analysed the binding of SCisoDGRCGVRY (SEQ ID NO: 17), CisoDGRCGVRY and acetyl-CisoDGRCGVRY to αvβ3, αvβ5, αvβ6 αvβ8 and α5β1 integrins using a competitive binding assay previously described (Curnis et al. 2010). […] As expected […] (SEQ ID NO: 3) and […] […] Considering that human NGR-TNF contains acetylated and non-acetylated forms and that both CNGRC (SEQ ID NO:5) and acetyl-CNGRC can undergo deamidation (Curnis et al. 2010), inventors can conclude that the isoDGR derivative of S-NGR-TNF, if formed, behave in a manner similar to those of the isoDGR derivatives of NGR-TNF in terms of integrin recognition."}, "[3]": {"target": "αvβ3 (Homo sapiens, UniProt P05106+P06756)", "test": "Competitive binding of acetyl-CisoDGRCG/streptavidin-peroxidase to integrin-coated microtiterplates", "excerpt": "as §1"}, "[4]": {"target": "αvβ5 (Homo sapiens, UniProt P06756+P18084)", "test": "Competitive binding of acetyl-CisoDGRCG/streptavidin-peroxidase to integrin-coated microtiterplates", "conditions": "mean ± SE", "excerpt": "as §1"}, "[5]": {"target": "αvβ6 (Homo sapiens, UniProt P06756+P18564)", "test": "Competitive binding of acetyl-CisoDGRCG/streptavidin-peroxidase to integrin-coated microtiterplates", "conditions": "mean ± SE", "excerpt": "as §1"}, "[6]": {"target": "αvβ8 (Homo sapiens, UniProt P06756+P26012)", "test": "Competitive binding of acetyl-CisoDGRCG/streptavidin-peroxidase to integrin-coated microtiterplates", "conditions": "mean ± SE", "excerpt": "as §1"}, "[7]": {"test": "Peptide deamidation stability upon incubation at 37° C., by mass spectrometry", "type": "physicochemical", "conditions": "after 32 h at 37° C. in PBS, pH 7.4", "experimental": "FIG. 11. The peptide SCNGRCGVRY (SEQ ID NO: 3) has a lower propensity to deamidate than CNGRCGVRY (SEQ ID NO:4) in a physiological buffer at […], but not in ammonium bicarbonate buffer at pH 8.5. A and B) MS analysis of SCNGRCGVRY (SEQ ID NO: 3) and CNGRCGVRY (SEQ ID NO:4) after incubation at 37° C. for the indicated time in 50 mM sodium phosphate buffer, pH 7.4 (PBS) or 0.1 M ammonium bicarbonate buffer, pH 8.5 (Ambic). The values +0, + 1, -17 reported in the plot correspond to the difference between the observed and the expected molecular mass of peptides expressed in daltons. MS analysis was performed using the LTQ-Orbitrap mass spectrometer (Thermo Scientific).\nTo assess whether the addition of the serine residue to CNGRCG (SEQ ID NO:1) might affect its deamidation propensity inventors synthetized the SCNGRCGVRY (SEQ ID NO: 3) and CNGRCGVRY (SEQ ID NO:4) peptides and studied their stability upon incubation at 37° C. in PBS, pH 7.4, by mass spectrometry.\nA similar experiment was then performed with peptides in 0.1 M ammonium bicarbonate, pH 8.5, a condition known to force Asn deamidation (Curnis et al. 2006). […] Furthermore, the succinimide-derivative of S-NGR-TNF, when formed, is more prone to hydrolysis."}}, "note": "Positions of bridges follow the written chain, without caps; N, C: chain ends. Residues, ends and D or L forms follow the SMILES beside them."}
{"smiles": "CC(C)[C@H](NC(=O)CNC(=O)[C@@H]1CSSC[C@H](NC(=O)[C@@H](N)CO)C(=O)N[C@@H](CC(N)=O)C(=O)NCC(=O)N[C@@H](CCCNC(=N)N)C(=O)N1)C(=O)N[C@@H](CCCNC(=N)N)C(=O)N[C@@H](Cc1ccc(O)cc1)C(=O)O", "note": "[SCNGRCGVRY, SCNGRCGVRY (SEQ ID NO: 3)] (H-SCNGRCGVRY-OH; disulfide 2-6; N-terminus and C-terminus assumed)", "values": [{"measurement": "Ki value for CD13 lower than that of CNGRCGVRY", "setting": "[1]", "value": "3-5 fold"}, {"measurement": "Ki", "setting": "[2]", "value": "> 10", "unit": "µM"}, {"measurement": "Ki", "setting": "[3]; mean ± SE", "value": "> 10", "unit": "µM"}, {"measurement": "affinity for integrins", "setting": "[3]; αvβ3, αvβ5, αvβ6, αvβ8 and α5β1 (all integrins)", "value": "no or very low affinity"}, {"measurement": "Ki", "setting": "[4]", "value": "> 10", "unit": "µM"}, {"measurement": "Ki", "setting": "[5]", "value": "> 10", "unit": "µM"}, {"measurement": "Ki", "setting": "[6]", "value": "> 10", "unit": "µM"}, {"measurement": "+1 Da deamidation product (DGR/isoDGR)", "setting": "[7]", "value": "observed"}, {"measurement": "-17 Da form still present", "setting": "[7]", "value": "not"}]}
